What was measured:
[1] = tested on: ssDNA (DNA, single strand) CCAGTTCGTAGTAACCC; test: luminescence response; conditions: none stated in assay buffer; 10 mM Tris-HCl, pH 7.2; 1.5 µM complex; 5 µM DNA highest tested
[2] = tested on: c-myc (DNA, G4) TGAGGGTGGGTAGGGTGGGTAA; test: G4-FID, thiazole orange displacement; conditions: 100 mM KCl; 10 mM Tris-HCl, pH 7.2; 0.25 µM DNA; 0.50 µM thiazole orange displaced
[3] = tested on: ds26 (DNA, duplex) CAATCGGATCGAATTCGATCCGATTG; test: G4-FID, thiazole orange displacement; conditions: 100 mM KCl; 10 mM Tris-HCl, pH 7.2; 0.75 µM thiazole orange; <15% displaced at highest concentration 1.25 µM
[4] = tested on: F21T (DNA, G4) GGGTTAGGGTTAGGGTTAGGG; test: FRET melting; conditions: 100 mM K+; potassium cacodylate, pH 7.0; 5 µM compound; 0.2 µM DNA
[5] = tested on: F10T (DNA, hairpin, hexaethylene glycol (HEG) linker between 8 and 9) TATAGCTATATAGCTATAT; test: FRET melting; conditions: 10 mM Li+; lithium cacodylate, pH 7.4; 5 µM compound; 0.2 µM DNA
[6] = tested on: c-myc (DNA, G4) TGAGGGTGGGTAGGGTGGGTAA; test: luminescence response; conditions: 20 mM KCl (annealing); 10 mM Tris-HCl, pH 7.2; 1.5 µM complex; 5 µM DNA; intensity ratio 7.5 over ds26, 5.5 over ssDNA

Row | binding [1] | G4DC50 [2] [µM] | DC50 [3] [µM] | ΔTm [4] | ΔTm [5] [°C] | binding [6] | SMILES
1 | no | 0.85 | > 1.25 | ~ 6.0 °C | 2 |  | Cc1ccc(-c2ccc(C)cn2)nc1.[Ir+3].[c-]1ccccc1-c1nc2ccccc2[nH]1.[c-]1ccccc1-c1nc2ccccc2[nH]1
2 |  |  |  |  |  | yes | Cc1ccc(-c2ccc(C)cn2)nc1.[Ir+3].[c-]1ccccc1-c1nc2ccccc2s1.[c-]1ccccc1-c1nc2ccccc2s1
